Results from patent US20240190880A1 (THE REGENTS OF THE UNIVERSITY OF MICHIGAN, priority 2021, published 2024).

Target: T1, ER (Homo sapiens, UniProt P03372)
T1 construct: host or cells: T47D and MCF7 human breast cancer cells
T1 sequence (P03372 1-595): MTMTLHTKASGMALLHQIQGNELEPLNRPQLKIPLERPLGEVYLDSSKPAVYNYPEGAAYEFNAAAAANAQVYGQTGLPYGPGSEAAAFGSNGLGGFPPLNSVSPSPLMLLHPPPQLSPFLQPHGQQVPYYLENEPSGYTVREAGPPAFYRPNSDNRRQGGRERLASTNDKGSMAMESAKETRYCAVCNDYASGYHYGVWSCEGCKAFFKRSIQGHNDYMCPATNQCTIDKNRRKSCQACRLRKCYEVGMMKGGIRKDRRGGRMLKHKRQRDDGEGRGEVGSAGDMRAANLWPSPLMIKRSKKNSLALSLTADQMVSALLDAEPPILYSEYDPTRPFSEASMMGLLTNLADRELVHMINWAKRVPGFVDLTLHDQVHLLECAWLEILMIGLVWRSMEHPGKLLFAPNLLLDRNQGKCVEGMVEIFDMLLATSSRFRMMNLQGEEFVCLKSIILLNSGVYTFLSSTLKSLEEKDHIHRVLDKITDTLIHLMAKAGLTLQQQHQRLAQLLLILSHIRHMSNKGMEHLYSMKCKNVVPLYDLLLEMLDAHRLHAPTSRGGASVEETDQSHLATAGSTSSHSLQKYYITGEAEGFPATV
Assay: ER degradation activity, in-cell western blot analysis in T47D cells
Assay type: cell-based
Conditions: 16 hours, Table A does not say which cell line (T47D or MCF7), read-out: Potency (DC50)
Protocol: ER degradation activity was evaluated in the human breast cancer cell line T47D and MCF7 purchased from the American Type Culture Collection (ATCC), Manassas, VA, and maintained and cultured in Dulbecco's Modified Eagle's medium (DMEM) containing 10% fetal bovine serum, 1 unit/ml of penicillin and 1 μg/ml of streptomycin.
The protocol for the in-cell western blot analysis: a. seed cells in black-sided/clear bottom 96- or 384-well plates at 40,000 or 10,000 cells/well, overnight; b. add diluted compounds (final 0.5% DMSO), 16 hours. […] RT 2 h, gentle shaking. Negative control: cells plus secondary antibodies (no primary antibodies); e. wash ×4 with PBS+0.05-0.1% Tween 20, gentel shaking; f. anti-rabbit-680 and anti-mouse-800 (both 1:1000 in LiCor block+0.05% Tween20, RT 1 h, gentle shaking, no light. LI-COR: 0.2% to reduce background; g. wash×4 with PBS+0.05% Tween 20, gental shaking; h. add 100 μL or 25 μL of PBS to each well and read on CLX plate reader. The relative ER percentage in treated cells were obtained by comparing the values of treated wells to those in untreated and DMSO-treated wells as 100%.

| DC50 [nM] | Structure (SMILES) |
| --- | --- |
| 10 to 100 | C[C@H]1CC2(CCN(c3ccc([C@@H]4c5ccc(O)cc5CC[C@@H]4c4ccccc4)cc3)CC2)CN1C(=O)CN1Cc2cc3c(cc2C1)C(=O)N(C1CCC(=O)NC1=O)C3=O (mixture of isomers) [E 142, Rac-2-(2,6-dioxopiperidin-3-yl)-6-(2-((S)-8-(4-((1R,2S)-6-hydroxy-2-phenyl-1,2,3,4-tetrahydronaphthalen-1-yl)phenyl)-3-methyl-2,8-diazaspiro[4.5]decan-2-yl)-2-oxoethyl)-6,7-dihydropyrrolo[3,4-f]isoindole-1,3(2H,5H)-dione] |
| 10 to 100 | C[C@H]1CC2(CCN(C(=O)CN3Cc4cc5c(cc4C3)C(=O)N(C3CCC(=O)NC3=O)C5=O)CC2)CN1c1ccc([C@@H]2c3ccc(O)cc3CC[C@@H]2c2ccccc2)cc1 (mixture of isomers) [E 143, Rac-2-(2,6-dioxopiperidin-3-yl)-6-(2-((S)-2-(4-((1R,2S)-6-hydroxy-2-phenyl-1,2,3,4-tetrahydronaphthalen-1-yl)phenyl)-3-methyl-2,8-diazaspiro[4.5]decan-8-yl)-2-oxoethyl)-6,7-dihydropyrrolo[3,4-f]isoindole-1,3(2H,5H)-dione] |
| > 100 | C[C@H]1CC2(CCN(CC(=O)N3Cc4cc5c(cc4C3)C(=O)N(C3CCC(=O)NC3=O)C5=O)CC2)CN1c1ccc([C@@H]2c3ccc(O)cc3CC[C@@H]2c2ccccc2)cc1 (mixture of isomers) [E 144, Rac-2-(2,6-dioxopiperidin-3-yl)-6-(2-((S)-2-(4-((1R,2S)-6-hydroxy-2-phenyl-1,2,3,4-tetrahydronaphthalen-1-yl)phenyl)-3-methyl-2,8-diazaspiro[4.5]decan-8-yl)acetyl)-6,7-dihydropyrrolo[3,4-f]isoindole-1,3(2H,5H)-dione] |
| 10 to 100 | C[C@@H]1CC2(CCN(c3ccc([C@@H]4c5ccc(O)cc5CC[C@@H]4c4ccc(F)cc4)cc3)CC2)CN1C(=O)CN1Cc2cc3c(cc2C1)C(=O)N(C1CCC(=O)NC1=O)C3=O (mixture of isomers) [E 145, Rac-2-(2,6-dioxopiperidin-3-yl)-6-(2-((R)-8-(4-((1R,2S)-2-(4-fluorophenyl)-6-hydroxy-1,2,3,4-tetrahydronaphthalen-1-yl)phenyl)-3-methyl-2,8-diazaspiro[4.5]decan-2-yl)-2-oxoethyl)-6,7-dihydropyrrolo[3,4-f]isoindole-1,3(2H,5H)-dione] |
| > 100 | C[C@@H]1CC2(CCN(c3ccc([C@@H]4c5ccc(O)cc5CC[C@@H]4c4ccc(F)cc4)cc3)CC2)CN1CC(=O)N1Cc2cc3c(cc2C1)C(=O)N(C1CCC(=O)NC1=O)C3=O (mixture of isomers) [E 146, Rac-2-(2,6-dioxopiperidin-3-yl)-6-(2-((R)-8-(4-((1R,2S)-2-(4-fluorophenyl)-6-hydroxy-1,2,3,4-tetrahydronaphthalen-1-yl)phenyl)-3-methyl-2,8-diazaspiro[4.5]decan-2-yl)acetyl)-6,7-dihydropyrrolo[3,4-f]isoindole-1,3(2H,5H)-dione] |
| > 100 | C[C@H]1CC2(CCN(c3ccc([C@@H]4c5ccc(O)cc5CC[C@@H]4c4ccccc4)cc3)CC2)CN1CC(=O)N1Cc2cc3c(cc2C1)C(=O)N(C1CCC(=O)NC1=O)C3=O (mixture of isomers) [E 151, Rac-2-(2,6-dioxopiperidin-3-yl)-6-(2-((S)-8-(4-((1R,2S)-6-hydroxy-2-phenyl-1,2,3,4-tetrahydronaphthalen-1-yl)phenyl)-3-methyl-2,8-diazaspiro[4.5]decan-2-yl)acetyl)-6,7-dihydropyrrolo[3,4-f]isoindole-1,3(2H,5H)-dione] |
| > 100 | O=C1CCC(N2C(=O)c3cc4c(cc3C2=O)CN(CC(=O)N2CCC[C@H](Oc3ccc([C@@H]5c6ccc(O)cc6CC[C@@H]5c5ccc(F)cc5)cc3)C2)C4)C(=O)N1 (mixture of isomers) [E 157, Rac-2-(2,6-dioxopiperidin-3-yl)-6-(2-((S)-3-(4-((1R,2S)-2-(4-fluorophenyl)-6-hydroxy-1,2,3,4-tetrahydronaphthalen-1-yl)phenoxy)piperidin-1-yl)-2-oxoethyl)-6,7-dihydropyrrolo[3,4-f]isoindole-1,3(2H,5H)-dione] |
| > 100 | O=C1CCC(N2C(=O)c3cc4c(cc3C2=O)CN(C(=O)CN2CCC[C@H](Oc3ccc([C@@H]5c6ccc(O)cc6CC[C@@H]5c5ccc(F)cc5)cc3)C2)C4)C(=O)N1 (mixture of isomers) [E 159, Rac-2-(2,6-dioxopiperidin-3-yl)-6-(2-((S)-3-(4-((1R,2S)-2-(4-fluorophenyl)-6-hydroxy-1,2,3,4-tetrahydronaphthalen-1-yl)phenoxy)piperidin-1-yl)acetyl)-6,7-dihydropyrrolo[3,4-f]isoindole-1,3(2H,5H)-dione] |
| > 100 | O=C1CCC(N2Cc3cc4c(cc3C2=O)CN(CC2CCN(c3ccc([C@@H]5c6ccc(O)cc6CC[C@@H]5c5ccccc5)cc3)CC2)C4)C(=O)N1 (mixture of isomers) [E 1, Rac-3-(6-((1-(4-((1R,2S)-6-hydroxy-2-phenyl-1,2,3,4-tetrahydronaphthalen-1-yl)phenyl)piperidin-4-yl)methyl)-1-oxo-3,5,6,7-tetrahydropyrrolo[3,4-f]isoindol-2(1H)-yl)piperidine-2,6-dione] |
| 10 to 100 | O=C1CCC(N2C(=O)c3cc4c(cc3C2=O)CN(CC2CCN(c3ccc([C@@H]5c6ccc(O)cc6CC[C@@H]5c5ccccc5)cc3)CC2)C4)C(=O)N1 (mixture of isomers) [E 2, Rac-2-(2,6-dioxopiperidin-3-yl)-6-((1-(4-((1R,2S)-6-hydroxy-2-phenyl-1,2,3,4-tetrahydronaphthalen-1-yl)phenyl)piperidin-4-yl)methyl)-6,7-dihydropyrrolo[3,4-f]isoindole-1,3(2H,5H)-dione] |
| < 10 | O=C1CCC(N2Cc3cc4c(cc3C2=O)CN(C2CCN(CC3CCN(c5ccc([C@@H]6c7ccc(O)cc7CC[C@@H]6c6ccccc6)cc5)CC3)CC2)C4)C(=O)N1 (mixture of isomers) [E 3, Rac-3-(6-(1-((1-(4-((1R,2S)-6-hydroxy-2-phenyl-1,2,3,4-tetrahydronaphthalen-1-yl)phenyl)piperidin-4-yl)methyl)piperidin-4-yl)-1-oxo-3,5,6,7-tetrahydropyrrolo[3,4-f]isoindol-2(1H)-yl)piperidine-2,6-dione] |
| 10 to 100 | O=C1CCC(N2Cc3cc4c(cc3C2=O)CN(CC(=O)N2CCC3(CCN(c5ccc([C@@H]6c7ccc(O)cc7CC[C@@H]6c6ccccc6)cc5)CC3)C2)C4)C(=O)N1 (mixture of isomers) [E 4, rac-3-(6-(2-(8-(4-((1R,2S)-6-hydroxy-2-phenyl-1,2,3,4-tetrahydronaphthalen-1-yl)phenyl)-2,8-diazaspiro[4.5]decan-2-yl)-2-oxoethyl)-1-oxo-3,5,6,7-tetrahydropyrrolo[3,4-f]isoindol-2(1H)-yl)piperidine-2,6-dione] |
| < 10 | O=C1CCC(N2Cc3cc4c(cc3C2=O)CN(CC(=O)N2CCC3(CC2)CN(c2ccc([C@@H]5c6ccc(O)cc6CC[C@@H]5c5ccccc5)cc2)C3)C4)C(=O)N1 (mixture of isomers) [E 5, rac-3-(6-(2-(2-(4-((1R,2S)-6-hydroxy-2-phenyl-1,2,3,4-tetrahydronaphthalen-1-yl)phenyl)-2,7-diazaspiro[3.5]nonan-7-yl)-2-oxoethyl)-1-oxo-3,5,6,7-tetrahydropyrrolo[3,4-f]isoindol-2(1H)-yl)piperidine-2,6-dione] |
| < 10 | O=C1CCC(N2Cc3cc4c(cc3C2=O)CN(CC(=O)N2CCC3(C2)CN(c2ccc([C@@H]5c6ccc(O)cc6CC[C@@H]5c5ccccc5)cc2)C3)C4)C(=O)N1 (mixture of isomers) [E 6, rac-3-(6-(2-(2-(4-((1R,2S)-6-hydroxy-2-phenyl-1,2,3,4-tetrahydronaphthalen-1-yl)phenyl)-2,6-diazaspiro[3.4]octan-6-yl)-2-oxoethyl)-1-oxo-3,5,6,7-tetrahydropyrrolo[3,4-f]isoindol-2(1H)-yl)piperidine-2,6-dione] |
| 10 to 100 | O=C1CCC(N2C(=O)c3cc4c(cc3C2=O)CN(CC(=O)N2CCC3(CCN(c5ccc([C@@H]6c7ccc(O)cc7CC[C@@H]6c6ccccc6)cc5)CC3)C2)C4)C(=O)N1 (mixture of isomers) [E 7, rac-2-(2,6-dioxopiperidin-3-yl)-6-(2-(8-(4-((1R,2S)-6-hydroxy-2-phenyl-1,2,3,4-tetrahydronaphthalen-1-yl)phenyl)-2,8-diazaspiro[4.5]decan-2-yl)-2-oxoethyl)-6,7-dihydropyrrolo[3,4-f]isoindole-1,3(2H,5H)-dione] |
